{"source": "ChEMBL document CHEMBL5291721", "about": "“A preclinical secondary pharmacology resource illuminates target-adverse drug reaction associations of marketed drugs” (Nat Commun, 2023); also: assay procedure not described here", "key": {"[1]": {"target": "T1, Alpha-1A adrenergic receptor (Homo sapiens, UniProt P35348)", "T1 sequence (P35348 whole entry)": "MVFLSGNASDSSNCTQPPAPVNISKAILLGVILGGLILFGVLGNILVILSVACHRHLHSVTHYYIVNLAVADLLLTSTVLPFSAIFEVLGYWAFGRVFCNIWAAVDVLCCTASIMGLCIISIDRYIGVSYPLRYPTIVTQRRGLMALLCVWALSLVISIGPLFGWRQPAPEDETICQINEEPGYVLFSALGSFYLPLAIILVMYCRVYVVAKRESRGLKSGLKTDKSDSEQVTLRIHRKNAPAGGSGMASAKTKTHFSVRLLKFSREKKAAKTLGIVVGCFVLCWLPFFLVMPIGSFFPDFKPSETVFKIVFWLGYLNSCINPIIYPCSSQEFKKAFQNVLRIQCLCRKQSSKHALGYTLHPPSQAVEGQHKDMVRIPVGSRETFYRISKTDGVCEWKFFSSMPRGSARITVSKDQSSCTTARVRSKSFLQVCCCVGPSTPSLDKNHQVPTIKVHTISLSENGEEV", "assay_type": "functional, cell-based"}, "Adenosine receptor A3": {"target": "T2, Adenosine receptor A3 (Homo sapiens, UniProt P0DMS8)", "T2 sequence (P0DMS8 whole entry)": "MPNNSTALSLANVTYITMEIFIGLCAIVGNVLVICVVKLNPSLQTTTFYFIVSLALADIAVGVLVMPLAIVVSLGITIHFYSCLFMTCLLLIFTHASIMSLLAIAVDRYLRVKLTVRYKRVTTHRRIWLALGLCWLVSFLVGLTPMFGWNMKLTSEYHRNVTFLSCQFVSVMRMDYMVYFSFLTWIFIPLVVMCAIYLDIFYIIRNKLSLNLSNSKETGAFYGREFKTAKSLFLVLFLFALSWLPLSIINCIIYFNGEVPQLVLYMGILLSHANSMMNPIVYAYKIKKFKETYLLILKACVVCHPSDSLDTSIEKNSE"}, "Adenosine receptor A1": {"target": "T3, Adenosine receptor A1 (Homo sapiens, UniProt P30542)", "T3 sequence (P30542 whole entry)": "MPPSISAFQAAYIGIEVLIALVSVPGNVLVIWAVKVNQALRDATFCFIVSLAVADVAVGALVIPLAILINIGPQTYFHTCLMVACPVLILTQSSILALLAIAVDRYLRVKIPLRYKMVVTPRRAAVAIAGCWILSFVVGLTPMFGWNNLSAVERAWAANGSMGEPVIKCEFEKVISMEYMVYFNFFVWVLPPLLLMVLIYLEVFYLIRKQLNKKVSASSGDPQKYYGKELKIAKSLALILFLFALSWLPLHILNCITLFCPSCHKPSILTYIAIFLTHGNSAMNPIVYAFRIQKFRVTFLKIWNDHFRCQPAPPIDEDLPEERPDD"}, "Androgen receptor": {"target": "T4, Androgen receptor (Homo sapiens, UniProt P10275)", "T4 sequence (P10275 whole entry)": "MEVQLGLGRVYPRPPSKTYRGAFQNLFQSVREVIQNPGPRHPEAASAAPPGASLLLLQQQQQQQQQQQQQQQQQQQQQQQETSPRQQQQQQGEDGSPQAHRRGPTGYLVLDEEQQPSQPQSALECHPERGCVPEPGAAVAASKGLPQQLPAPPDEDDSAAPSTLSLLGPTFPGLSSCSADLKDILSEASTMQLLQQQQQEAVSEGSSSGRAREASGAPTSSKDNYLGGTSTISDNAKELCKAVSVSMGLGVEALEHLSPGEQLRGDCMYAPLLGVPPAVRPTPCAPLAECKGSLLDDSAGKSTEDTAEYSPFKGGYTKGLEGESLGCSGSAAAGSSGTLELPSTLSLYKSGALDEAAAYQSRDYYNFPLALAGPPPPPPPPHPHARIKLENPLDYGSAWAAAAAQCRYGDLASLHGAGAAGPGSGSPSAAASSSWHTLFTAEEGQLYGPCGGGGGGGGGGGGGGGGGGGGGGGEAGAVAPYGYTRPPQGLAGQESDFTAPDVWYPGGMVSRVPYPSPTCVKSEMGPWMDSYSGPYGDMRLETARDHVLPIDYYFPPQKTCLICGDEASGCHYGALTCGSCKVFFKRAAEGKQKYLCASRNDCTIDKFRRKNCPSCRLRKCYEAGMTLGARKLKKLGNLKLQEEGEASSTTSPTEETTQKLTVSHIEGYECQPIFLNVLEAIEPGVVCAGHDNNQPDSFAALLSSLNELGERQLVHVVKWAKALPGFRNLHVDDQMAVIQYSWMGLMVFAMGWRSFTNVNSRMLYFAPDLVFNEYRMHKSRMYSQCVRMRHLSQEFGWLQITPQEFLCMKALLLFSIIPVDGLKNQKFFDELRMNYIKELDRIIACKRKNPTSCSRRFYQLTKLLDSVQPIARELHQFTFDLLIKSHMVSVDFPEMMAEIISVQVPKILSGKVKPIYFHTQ"}, "[2]": {"target": "T5, Retinoic acid receptor alpha (Homo sapiens, UniProt P10276)", "T5 sequence (P10276 whole entry)": "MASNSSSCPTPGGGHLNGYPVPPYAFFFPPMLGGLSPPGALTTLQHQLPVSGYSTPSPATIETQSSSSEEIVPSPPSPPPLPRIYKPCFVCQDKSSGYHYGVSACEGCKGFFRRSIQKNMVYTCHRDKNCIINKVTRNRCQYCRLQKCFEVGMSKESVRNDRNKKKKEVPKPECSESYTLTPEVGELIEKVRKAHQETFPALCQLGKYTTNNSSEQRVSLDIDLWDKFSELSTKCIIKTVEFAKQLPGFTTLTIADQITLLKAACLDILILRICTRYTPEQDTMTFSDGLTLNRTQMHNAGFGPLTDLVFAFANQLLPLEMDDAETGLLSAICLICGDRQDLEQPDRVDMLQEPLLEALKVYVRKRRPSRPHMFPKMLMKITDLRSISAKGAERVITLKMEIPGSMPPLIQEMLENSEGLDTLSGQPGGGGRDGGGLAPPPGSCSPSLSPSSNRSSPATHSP", "assay_type": "functional, cell-based"}, "[3]": {"target": "T6, Nuclear receptor subfamily 1 group I member 3 (Homo sapiens, UniProt Q14994)", "T6 sequence (Q14994 whole entry)": "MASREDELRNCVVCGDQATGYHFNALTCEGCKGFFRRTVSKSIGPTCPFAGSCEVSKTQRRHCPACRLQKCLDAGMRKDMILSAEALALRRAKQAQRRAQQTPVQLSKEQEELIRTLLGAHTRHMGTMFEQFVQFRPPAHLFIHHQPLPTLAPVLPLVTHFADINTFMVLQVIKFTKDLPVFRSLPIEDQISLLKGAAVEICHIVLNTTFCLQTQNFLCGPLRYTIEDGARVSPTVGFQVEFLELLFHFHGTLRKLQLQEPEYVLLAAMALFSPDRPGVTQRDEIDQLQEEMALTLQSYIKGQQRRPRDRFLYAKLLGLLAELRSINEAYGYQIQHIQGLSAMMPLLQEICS", "assay_type": "functional"}, "D(1A) dopamine receptor": {"target": "D(1A) dopamine receptor (Homo sapiens, UniProt P21728)", "sequence (P21728 whole entry)": "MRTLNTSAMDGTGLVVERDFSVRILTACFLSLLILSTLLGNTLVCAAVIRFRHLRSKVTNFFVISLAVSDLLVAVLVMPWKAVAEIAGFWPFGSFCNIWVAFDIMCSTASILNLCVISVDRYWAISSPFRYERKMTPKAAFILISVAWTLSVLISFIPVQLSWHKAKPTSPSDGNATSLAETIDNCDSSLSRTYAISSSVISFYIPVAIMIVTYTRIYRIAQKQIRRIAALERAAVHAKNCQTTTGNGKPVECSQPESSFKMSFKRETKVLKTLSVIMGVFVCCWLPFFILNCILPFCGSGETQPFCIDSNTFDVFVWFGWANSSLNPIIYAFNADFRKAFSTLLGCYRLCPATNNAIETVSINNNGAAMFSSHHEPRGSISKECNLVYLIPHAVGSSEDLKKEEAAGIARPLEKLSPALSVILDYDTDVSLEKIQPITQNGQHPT"}}, "data": [{"compound": "Nc1nc2ccc(OC(F)(F)F)cc2s1", "note": "[RILUZOLE]", "values": [{"measurement": "AC50", "setting": "[1]", "result": "> 30", "unit": "µM"}, {"measurement": "AC50", "setting": "Adenosine receptor A3", "result": 29.2, "unit": "µM"}]}, {"compound": "BIVALIRUDIN", "values": [{"measurement": "AC50", "setting": "Adenosine receptor A1", "result": "> 30", "unit": "µM"}, {"measurement": "AC50", "setting": "Androgen receptor", "result": "> 30", "unit": "µM"}]}, {"compound": "CC(C)c1c(C(=O)Nc2ccccc2)c(-c2ccccc2)c(-c2ccc(F)cc2)n1CC[C@@H](O)C[C@@H](O)CC(=O)O", "note": "[ATORVASTATIN]", "values": [{"measurement": "AC50", "setting": "[2]", "result": "> 30", "unit": "µM"}, {"measurement": "AC50", "setting": "[3]", "result": "> 10", "unit": "µM"}]}, {"compound": "CCN1CCC[C@H]1CNC(=O)c1cc(S(N)(=O)=O)ccc1OC", "note": "[LEVOSULPIRIDE]", "values": [{"measurement": "AC50", "setting": "D(1A) dopamine receptor", "result": 12, "unit": "µM"}]}]}
